# Laboratory results from PubChem BioAssay AID179 (DTP/NCI, 2004).
# The source made the active and inactive calls.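 Rule for the calls: active = compounds giving half or more protection of infected cells from virus-caused growth loss, again on retest; inactive = the rest.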
# Tested on: CEM cells HIV-1 protection, formazan growth assay
# Test: NCI AIDS Antiviral Assay
# Conditions: for IC50: measured here: growth of uninfected CEM cells
# Method in brief: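 Protection of CEM cells against HIV-1 measured as cell growth via soluble formazan read-out, with five concentrations tested on both infected and uninfected cells; failure to protect may reflect toxicity.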
SMILES,EC50 [µM],IC50 [µM],outcome
Cc1cc(C)c2c(c1)CC2(Cl)Cl,> 178,> 178,
O=S(=O)(Sc1ccccc1)c1ccccc1,> 81.3,13.8,
CC(=O)N1C(=O)C(=O)c2ccccc21,> 200,> 200,
c1ccc2c(c1)n1nnnc1c1nnnn21,> 33.9,> 33.9,
NC1CC(=O)c2c(I)sc(I)c21 (stereo not drawn),> 200,4.47,
Cn1c(=O)c2[nH]c(/N=N\n3ccc4ccccc43)nc2n(C)c1=O,> 200,191,
CC(C)(C)c1ccc(O)c(C(c2ccc([N+](=O)[O-])cc2)c2cc(C(C)(C)C)ccc2O)c1,> 200,3.55,
O=C(O)C12C3C4C1C1C2C3C1(Br)C41OCCO1 (stereo not drawn),> 832,> 832,
Cc1cc([N+](=O)[O-])ccc1Sc1c2ccccc2nc2ccccc12,> 20.9,> 20.9,
CCOC(=O)CN1C(=O)c2c(c(C)n(-c3ccccc3)c2C)C1=O,> 200,> 200,
COc1cc(/C=C2/C(=O)N(C(=O)c3ccc(Cl)cc3)N=C2C)cc(OC)c1OC,> 17.4,> 17.4,
COc1cc2c(cc1OC)C(=O)/C(=C/c1cc(OC)c(OC)c(OC)c1)C2,> 200,162,
CC12CCC(C(Nc3cc(C(F)(F)F)cc(C(F)(F)F)c3)C1=O)C2(C)C (stereo not drawn),> 200,> 200,
CC(C)Oc1cc2c(c3oc(=O)cc(-c4ccccc4)c13)C(=O)[C@H](C)[C@@H](C)O2,> 200,51.3,
O=[N+]([O-])c1ccc(Cc2ccc([N+](=O)[O-])cc2)cc1,> 28.2,> 28.2,
O=C1C2C3C=C4c5ccccc5N(c5ccccc5)C4(C2C(=O)N1Cc1ccccc1)C1C(=O)N(Cc2ccccc2)C(=O)C31 (stereo not drawn),,,inactive
C#CCCCOc1ncccn1,> 200,> 200,
COC(=O)C1OC(OC2=C(c3ccc(OC)cc3)C(=O)C(OC3OC(C(=O)OC)C(OC(C)=O)C(OC(C)=O)C3OC(C)=O)=C(c3ccc(OC)cc3)C2=O)C(OC(C)=O)C(OC(C)=O)C1OC(C)=O (stereo not drawn),> 28.8,4.57,

SMILES,EC50 [µM],IC50 [µM],outcome
c1ccc2nn(C3CCCCO3)nc2c1 (stereo not drawn),> 200,> 200,
Clc1ccc(CCc2ccncn2)c(Cl)c1,> 398,38,
CC(=O)n1[nH]c(=O)n(-c2ccc(Cl)cc2)c1=O,> 200,> 200,
N#CC(C#N)=C1/C(=C/C=C/C=C/C=C/c2ccc(N3CCCCC3)s2)S(=O)(=O)c2ccccc21,> 200,93.3,
O=C1c2ccccc2CC12Cc1ccc3c(c1C2)CCC3 (stereo not drawn),> 200,89.1,
CSc1nnc(SC)nn1,> 200,0.851,
C[C@@H]1C(N2CCCC2)=CC(=O)OC1c1ccccc1 (stereo partly drawn),> 200,> 200,
Cc1nc2ccccc2c(=O)n1-c1ccccc1F,> 708,437,
O=c1[nH]cnc2c1ncn2[C@@H]1C[C@H]1CO,,,inactive
CC1=NN(C(=O)c2cc(Cl)cc([N+](=O)[O-])c2)C(=O)C1N=Nc1ccccc1C(=O)O (stereo not drawn),,,inactive
Nc1nc2c(-c3ccc([N+](=O)[O-])cc3)nnn2c2cccc(Cl)c12,> 3.98,> 3.98,
O=C(/C=C\c1ccc(/C=C/C(=O)Nc2cccc(C3=NCCCN3)c2)cc1)Nc1cccc(C2=NCCCN2)c1,> 44.7,8.13,
CCCC1(C)OC(=O)C(c2ccccc2)O1 (stereo not drawn),> 200,> 200,
COc1ccc(/C=C/C(=O)c2cc(C)ccc2OC(C)=O)cc1,> 23.4,15.8,
Cc1ccc(C2C(C(=O)C(C)(C)C)N2S(=O)(=O)c2ccc(C)cc2)cc1 (stereo not drawn),> 200,> 200,
COC1=CC(=O)c2ccc(C(C)C)cc2C1(C)C1=NC(C)(C)CO1 (stereo not drawn),> 151,> 151,
O=[N+]([O-])C(=C(c1ccccc1)c1ccccc1)[N+](=O)[O-],,,inactive
O=C1C=C2C(=NC34CCCCC3C(c3ccccc3)C3=C(c5ccccc5CC3)N24)c2ccccc21 (stereo not drawn),186,> 200,
